This note sets out measurements from ChEMBL document CHEMBL1139205, “Newer tetracycline derivatives: synthesis, anti-HIV, antimycobacterial activities and inhibition of HIV-1 integrase” (Bioorg Med Chem Lett, 2007).

In brackets after ≈: the same amount, converted by molar mass.

Data set [1] deals with Mycobacterium tuberculosis. As to the kind of experiment: Antimycobacterial activity against Mycobacterium tuberculosis by agar dilution method. Format: functional.
Data set [2] relates to Human immunodeficiency virus 1. The data set can be described thus: Antiviral activity against HIV1 3B in CEM cells assessed as inhibition of viral-induced cytopathicity. Particulars: Human immunodeficiency virus 1, 3B, CCRF-CEM. Type of data set: functional, organism-based.
Data set [3] in a line: Cytotoxicity against CEM cells after 5 days by MTT method. Type of data set: cell-based. Particulars: human, CCRF-CEM (CEM) cells. Background: Tetrazolium assays rely on reduction of a dye to a coloured formazan, in cell work by metabolically active cells.
Data set [4] has as its target T1, Human immunodeficiency virus type 1 integrase (Human immunodeficiency virus 1, UniProt Q7ZJM1). As to the kind of experiment: Inhibition of HIV1 recombinant integrase strand transfer activity.
For data set [5], the target named is T1, Human immunodeficiency virus type 1 integrase. The data set can be described thus: Inhibition of HIV1 recombinant integrase 3'-processing activity.
A short description of data set [6]: Selectivity index, ratio of CC50 for CEM cells to EC50 for HIV1 3B. Format: functional, CCRF-CEM.

T1 sequence (Q7ZJM1 whole entry): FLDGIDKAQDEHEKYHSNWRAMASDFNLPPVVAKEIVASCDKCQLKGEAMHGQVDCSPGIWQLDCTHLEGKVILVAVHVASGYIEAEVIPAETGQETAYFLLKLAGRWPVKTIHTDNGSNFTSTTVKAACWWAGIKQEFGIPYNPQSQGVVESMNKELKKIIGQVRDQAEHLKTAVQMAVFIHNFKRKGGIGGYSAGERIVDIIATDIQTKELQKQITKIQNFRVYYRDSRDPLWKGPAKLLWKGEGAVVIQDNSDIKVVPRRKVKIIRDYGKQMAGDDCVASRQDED

Take `CCn1cc(C(=O)O)c(=O)c2cc(F)c(N3CCNC(C)C3)c(F)c21` (stereo not given) [LOMEFLOXACIN]: inhibition of growth in data set [1] (MIC) required 6.25 µg/mL (≈ 17.8 µM).

Take `CCn1cc(C(=O)O)c(=O)c2cc(F)c(N3CCN(CNC(=O)C4=C(O)[C@@H](N(C)C)[C@@H]5[C@@H](O)[C@H]6C(=C(O)[C@]5(O)C4=O)C(=O)c4c(O)cccc4[C@@]6(C)O)C(C)C3)c(F)c21` (stereo not given in full): the EC50 (usually the concentration giving half of the maximal effect) in data set [2] is 15.1 µM. Also, the MIC (commonly the smallest concentration in the dilution series that meets the test's criterion for growth inhibition) in data set [1] turned out to be 0.78 µg/mL (≈ 0.947 µM). For the same compound, in data set [3], the CC50 – broadly, the concentration at which the toxic effect on the cells reaches its halfway point – at 120 h amounted to 37.4 µM.

As to `CN(C)[C@@H]1C(O)=C(C(N)=O)C(=O)[C@@]2(O)C(O)=C3C(=O)c4c(O)cccc4[C@@](C)(O)[C@H]3C[C@@H]12` [TETRACYCLINE], the EC50 in data set [2] is over 40.5 µM. Further, the MIC in data set [1] was over 6.25 µg/mL. For the same compound, the results for the IC50 in data set [4] and in data set [5] were 188 µM and 204 µM, respectively. Also, the CC50 at 120 h in data set [3] came out at 40.5 µM.

Take `CN(C)[C@@H]1C(O)=C(C(=O)NCN2CCN(c3cc4c(cc3F)c(=O)c(C(=O)O)cn4C3CC3)CC2)C(=O)[C@@]2(O)C(O)=C3C(=O)c4c(O)cccc4[C@@](C)(O)[C@H]3C[C@@H]12`: the EC50 in data set [2] was 8.4 µM. Further, the MIC in data set [1] was 0.39 µg/mL (≈ 0.495 µM). For the same compound, the results for the IC50 in data set [4] and in data set [5] were 12 µM and 20 µM, respectively. This compound registered a half-maximal cytotoxic concentration (CC50) at 120 h in data set [3] of 141 µM.

As to `CCn1cc(C(=O)O)c(=O)c2cc(F)c(N3CCN(CNC(=O)C4=C(O)[C@@H](N(C)C)[C@@H]5[C@@H](O)[C@H]6C(=C(O)[C@]5(O)C4=O)C(=O)c4c(O)cccc4[C@@]6(C)O)CC3)cc21`, the EC50 in data set [2] amounted to 12.2 µM. Further, inhibition of growth in data set [1] (MIC) required 0.78 µg/mL (≈ 0.985 µM). Further, the IC50 (commonly the midpoint of a concentration-inhibition curve) was 12 µM in data set [4] and 21 µM in data set [5]. Further, the CC50 at 120 h in data set [3] is 40 µM.

With `CN(C)[C@@H]1C(O)=C(C(=O)NCN2CCN(c3cc4c(cc3F)c(=O)c(C(=O)O)cn4C3CC3)CC2)C(=O)[C@@]2(O)C(O)=C3C(=O)c4c(O)cccc4[C@@](C)(O)[C@H]3[C@H](O)[C@@H]12`, the EC50 in data set [2] was over 17.7 µM. Also, it took 0.39 µg/mL (≈ 0.485 µM) to inhibit growth in data set [1] (MIC). Further, the figures for the IC50 in data set [4] and in data set [5] were 17 µM and 38 µM, respectively. Half-maximal cytotoxicity in data set [3] (CC50 at 120 h) was put at 17.7 µM.

Regarding `COc1c(N2CCN(CNC(=O)C3=C(O)[C@@H](N(C)C)[C@@H]4[C@@H](O)[C@H]5C(=C(O)[C@]4(O)C3=O)C(=O)c3c(O)cccc3[C@@]5(C)O)C(C)C2)c(F)cc2c(=O)c(C(=O)O)cn(C3CC3)c12` (stereo not given in full), the EC50 in data set [2] is over 28.9 µM. In data set [1], the MIC is 0.39 µg/mL (≈ 0.46 µM). Further, the IC50 was determined as 13.5 µM in data set [4] and 28 µM in data set [5]. The CC50 at 120 h in data set [3] amounted to 28.9 µM.

As to `CN(C)c1ccc(O)c2c1C[C@H]1C[C@H]3[C@H](N(C)C)C(O)=C(C(N)=O)C(=O)[C@@]3(O)C(O)=C1C2=O` [MINOCYCLINE], in data set [2], the EC50 was over 52.1 µM. In data set [1], this compound came in with an MIC of over 6.25 µg/mL. In addition, the midpoint of cytotoxicity in data set [3], the CC50 at 120 h, lay at 52.1 µM.

As for `CN(C)c1ccc(O)c2c1C[C@H]1C[C@H]3[C@H](N(C)C)C(O)=C(C(=O)NCN4CCN(c5cc6c(cc5F)c(=O)c(C(=O)O)cn6C5CC5)CC4)C(=O)[C@@]3(O)C(O)=C1C2=O`, the EC50 in data set [2] was over 120 µM. The compound also returned an MIC in data set [1] of 0.78 µg/mL (≈ 0.974 µM). In data set [3], this compound had a CC50 at 120 h of 120 µM.

With `COc1c(N2CCN(CNC(=O)C3=C(O)[C@@H](N(C)C)[C@@H]4C[C@@H]5Cc6c(N(C)C)ccc(O)c6C(=O)C5=C(O)[C@]4(O)C3=O)C(C)C2)c(F)cc2c(=O)c(C(=O)O)cn(C3CC3)c12` (stereo not given in full), the EC50 in data set [2] was over 126 µM. For the same compound, in data set [1], the MIC stood at 0.2 µg/mL (≈ 0.237 µM). Also, in data set [3], the midpoint of cytotoxicity, the CC50 at 120 h, lay at 126 µM.

For the compound `CCn1cc(C(=O)O)c(=O)c2cc(F)c(N3CCN(CNC(=O)C4=C(O)[C@@H](N(C)C)[C@@H]5C[C@@H]6Cc7c(N(C)C)ccc(O)c7C(=O)C6=C(O)[C@]5(O)C4=O)C(C)C3)c(F)c21` (stereo not given in full), in data set [2], the EC50 worked out at 5.2 µM. Further, the “Ratio CC50/EC50” value in data set [6] is reported as over 38. Further, in data set [1], the minimal inhibitory concentration (MIC) came out at 0.2 µg/mL (≈ 0.244 µM). The IC50 in data set [4] turned out to be 18 µM; in data set [5] it was 20 µM. The CC50 at 120 h in data set [3] was over 200 µM.

Regarding `CN(C)[C@@H]1C(O)=C(C(=O)NCN2CCCC2)C(=O)[C@@]2(O)C(O)=C3C(=O)c4c(O)cccc4[C@@](C)(O)[C@H]3C[C@@H]12` [ROLITETRACYCLINE], the EC50 in data set [2] was over 45.5 µM. Further, in data set [1], the MIC is over 6.25 µg/mL. For the same compound, the IC50 in data set [4] amounted to 34 µM; in data set [5], 28 µM. Also, the CC50 at 120 h in data set [3] is 45.5 µM.

Regarding `CCn1cc(C(=O)O)c(=O)c2cc(F)c(N3CCN(CNC(=O)C4=C(O)[C@@H](N(C)C)[C@@H]5C[C@H]6C(=C(O)[C@]5(O)C4=O)C(=O)c4c(O)cccc4[C@@]6(C)O)CC3)cc21`, in data set [2], the EC50 was 14.6 µM. For the same compound, the lowest concentration to inhibit growth in data set [1] (MIC) was 0.78 µg/mL (≈ 1.01 µM). Moreover, the IC50 in data set [4] was found to be 13 µM; in data set [5], 20 µM. In addition, the CC50 at 120 h in data set [3] turned out to be 131 µM.

As to `CCn1cc(C(=O)O)c(=O)c2cc(F)c(N3CCN(CNC(=O)C4=C(O)[C@@H](N(C)C)[C@@H]5C[C@H]6C(=C(O)[C@]5(O)C4=O)C(=O)c4c(O)cccc4[C@@]6(C)O)C(C)C3)c(F)c21` (stereo not given in full), the EC50 in data set [2] amounted to 7.58 µM. The compound also returned an MIC in data set [1] of 1.56 µg/mL (≈ 1.93 µM). Moreover, the results for the IC50 in data set [4] and in data set [5] were 44 µM and 65 µM, respectively. The CC50 at 120 h in data set [3] was over 200 µM.

With `COc1c(N2CCN(CNC(=O)C3=C(O)[C@@H](N(C)C)[C@@H]4C[C@H]5C(=C(O)[C@]4(O)C3=O)C(=O)c3c(O)cccc3[C@@]5(C)O)C(C)C2)c(F)cc2c(=O)c(C(=O)O)cn(C3CC3)c12` (stereo not given in full), the EC50 in data set [2] amounted to 20.2 µM. In data set [1], this compound displayed an MIC of 0.2 µg/mL (≈ 0.24 µM). Besides, half-maximal cytotoxicity in data set [3] (CC50 at 120 h) was put at 140 µM.

Regarding `CCn1cc(C(=O)O)c(=O)c2cc(F)c(N3CCN(CNC(=O)C4=C(O)[C@@H](N(C)C)[C@@H]5C[C@@H]6Cc7c(N(C)C)ccc(O)c7C(=O)C6=C(O)[C@]5(O)C4=O)CC3)cc21`, the EC50 in data set [2] is over 130 µM. The same compound gave an MIC in data set [1] of 0.78 µg/mL (≈ 0.989 µM). Further, the midpoint of cytotoxicity in data set [3], the CC50 at 120 h, lay at 130 µM.
